Format in all cases: cell-based
The target of one assay is T1, BRAF V600E (Homo sapiens, UniProt P15056, V600E).
T1 construct: endogenous C-terminal HiBiT fusion tag on BRAF V600E allele; endogenous in cells; host or cells: A375 clone 1F10 (CRISPR-Cas9 knock-in of the HiBiT tag; parental A375 from ATCC)
Kind of assay: BRAF HiBiT degradation assay, C-terminal HiBiT-tagged BRAF V600E A375 cells (clone 1F10), Nano-Glo HiBiT Lytic assay. The following applies: for Dmax: A-375. In outline: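 Steps: seed HiBiT-tagged A375 clone 1F10 cells; incubate 24 h, 37 °C, 5% CO2; add compound (11 half-log points from 1 μM, 0.2% DMSO); lyse with HiBiT detection reagent plus LgBiT for 10 min; read luminescence; fit % protein remaining against concentration.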
(The HiBiT peptide binds its large partner to form an active luciferase.)

The next assay deals with T2, BRAF G466V (Homo sapiens, UniProt P15056, G466V).
T2 construct: Horizon Discovery (HCT-116 BRAF−/− cells); host or cells: HCT-116 BRAF−/− cells, clone 8, lentiviral transduction
T2 sequence (P15056 whole entry G466V): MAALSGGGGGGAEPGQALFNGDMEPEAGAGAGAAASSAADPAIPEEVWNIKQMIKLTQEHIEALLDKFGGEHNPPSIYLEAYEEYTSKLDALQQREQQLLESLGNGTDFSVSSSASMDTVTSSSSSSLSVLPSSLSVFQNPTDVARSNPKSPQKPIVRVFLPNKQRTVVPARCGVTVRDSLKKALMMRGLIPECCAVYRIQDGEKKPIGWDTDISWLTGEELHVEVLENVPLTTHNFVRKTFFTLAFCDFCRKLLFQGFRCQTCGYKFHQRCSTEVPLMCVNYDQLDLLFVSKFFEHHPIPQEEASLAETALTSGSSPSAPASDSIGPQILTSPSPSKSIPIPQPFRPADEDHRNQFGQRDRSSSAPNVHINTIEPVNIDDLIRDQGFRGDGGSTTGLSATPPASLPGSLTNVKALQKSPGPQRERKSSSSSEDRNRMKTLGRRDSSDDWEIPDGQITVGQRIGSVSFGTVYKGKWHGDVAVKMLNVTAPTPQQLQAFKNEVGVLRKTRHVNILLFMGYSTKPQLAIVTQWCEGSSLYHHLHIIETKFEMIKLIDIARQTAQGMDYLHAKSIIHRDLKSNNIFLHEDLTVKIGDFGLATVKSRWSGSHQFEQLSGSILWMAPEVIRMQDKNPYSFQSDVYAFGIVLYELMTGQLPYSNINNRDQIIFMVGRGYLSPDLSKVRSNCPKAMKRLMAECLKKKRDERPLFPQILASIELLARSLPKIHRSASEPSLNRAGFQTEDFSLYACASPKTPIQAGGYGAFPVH
Put plainly: BRAF HiBiT degradation assay, C-terminal HiBiT-tagged BRAF G466V overexpressed in HCT-116 BRAF−/− cells (clone 8), Nano-Glo HiBiT Lytic assay. In outline:
(§1)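 We quantified degradation of the C-terminally HiBiT-tagged, overexpressed mutant by lytic luminescence, normalizing to DMSO-treated cells with wild-type HCT-116 background subtracted. Dose series ran from 1 μM to 0.01 nM at 0.2% DMSO. Observed Dmax is % degraded at maximal effect.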

A further assay concerns the target T3, BRAF D594G (Homo sapiens, UniProt P15056, D594G).
T3 construct: Horizon Discovery (HCT-116 BRAF−/− cells); host or cells: HCT-116 BRAF−/− cells, clone 63, lentiviral transduction
Put plainly: BRAF HiBiT degradation assay, C-terminal HiBiT-tagged BRAF D594G overexpressed in HCT-116 BRAF−/− cells (clone 63), Nano-Glo HiBiT Lytic assay. In outline:
as §1

In a further assay the target is T4, BRAF G469A (Homo sapiens, UniProt P15056, G469A).
T4 construct: Horizon Discovery (HCT-116 BRAF−/− cells); host or cells: HCT-116 BRAF−/− cells, clone 34, lentiviral transduction
T4 sequence (P15056 whole entry G469A): as the sequence (P15056 whole entry G466V) above, with V466G, G469A counted along it
Kind of assay: BRAF HiBiT degradation assay, C-terminal HiBiT-tagged BRAF G469A overexpressed in HCT-116 BRAF−/− cells (clone 34), Nano-Glo HiBiT Lytic assay. In short, it runs like this:
as §1

[1] abbreviates: A375 (BRAF V600E), DC50 at 50%: fitted conc. at Y=50.
Where [2] appears, read: A375 (BRAF V600E), percentage protein degraded at maximal compound effect relative to DMSO.
The mark [3] stands for this setting: BRAF G466V, DC50 at 50%: fitted conc. at Y=50.
[4] abbreviates: HCT-116, BRAF G466V, percentage protein degraded at maximal compound effect relative to DMSO.
Setting [5] is: BRAF D594G, DC50 at 50%: fitted conc. at Y=50.
[6] abbreviates: HCT-116, BRAF D594G, percentage protein degraded at maximal compound effect relative to DMSO.
Where [7] appears, read: Class 2, BRAF G469A, DC50 at 50%: fitted conc. at Y=50.
[8] abbreviates: HCT-116, Class 2, BRAF G469A, percentage protein degraded at maximal compound effect relative to DMSO.

From US20260317324A1, “BIFUNCTIONAL COMPOUNDS FOR DEGRADING BRAF VIA UBIQUITIN PROTEOSOME PATHWAY” (Nurix Therapeutics, Inc., priority 2023, published 2026) come the findings set out here.

T3 sequence (P15056 whole entry D594G): as the sequence (P15056 whole entry G466V) above, with V466G, D594G counted along it
T1 sequence (P15056 whole entry V600E, the tested form may be a part): as the sequence (P15056 whole entry G466V) above, with V466G, V600E counted along it

Usually DC50 stands for the concentration giving 50% degradation. High values mean degradation only at high concentration, low ones degradation at low concentration. The Dmax is the largest share of the target that was removed. The low end stands for shallow degradation, the high end for deep degradation. For `O=C1CC[C@H](c2ccc(N3CCC(CN4CCN(c5ccc(-n6cc(-c7cc(Cl)cc(NS(=O)(=O)N8CC(F)C8)c7F)c(-c7ccncc7)n6)cc5)CC4)CC3)nc2)C(=O)N1` [Compound 331, N-{5-chloro-3-[1-(4-{4-[(1-{5-[(3R)-2,6-dioxopiperidin-3-yl]pyridin-2-yl}piperidin-4-yl)methyl]piperazin-1-yl}phenyl)-3-(pyridin-4-yl)-1H-pyrazol-4-yl]-2-fluorophenyl}-3-fluoroazetidine-1-sulfonamide], the DC50 is less than 10 nM at BRAF V600E (A375 (BRAF V600E, Class 1), DC50 at 50% degradation); less than 10 nM at BRAF G466V (BRAF G466V (Class 3), HCT-116 BRAF−/− cells, DC50 at 50% degradation); less than 10 nM at BRAF D594G (BRAF D594G (Class 3), HCT-116 BRAF−/− cells, DC50 at 50% degradation); less than 10 nM on BRAF G469A (BRAF G469A (Class 2), HCT-116 BRAF−/− cells, DC50 at 50% degradation). In addition, the maximal degradation (Dmax) was greater than 70% on BRAF V600E (A375 (BRAF V600E, Class 1), observed Dmax, % protein degraded relative to DMSO control); greater than 70% at BRAF G466V (BRAF G466V (Class 3), HCT-116 BRAF−/− cells, observed Dmax relative to DMSO control); 30 to 70% on BRAF D594G (BRAF D594G (Class 3), HCT-116 BRAF−/− cells, observed Dmax relative to DMSO control); greater than 70% at BRAF G469A (BRAF G469A (Class 2), HCT-116 BRAF−/− cells, observed Dmax relative to DMSO control).
For the compound `CCCS(=O)(=O)Nc1cccc(-c2nc(-c3ccc(N4CCN(CC5CCN(c6ccc([C@H]7CCC(=O)NC7=O)cc6)CC5)CC4)cc3)sc2-c2ccnc(N)n2)c1F` [Compound 191, N-{3-[5-(2-aminopyrimidin-4-yl)-2-(4-{4-[(1-{4-[(3R)-2,6-dioxopiperidin-3-yl]phenyl}piperidin-4-yl)methyl]piperazin-1-yl}phenyl)-1,3-thiazol-4-yl]-2-fluorophenyl}propane-1-sulfonamide], the DC50 on BRAF V600E (setting [1]) was less than 10 nM; at BRAF G466V (setting [3]), 10 to 50 nM; at BRAF D594G (setting [5]) it was greater than 500 nM; on BRAF G469A (setting [7]), greater than 500 nM. Besides, the Dmax at BRAF V600E (setting [2]) is greater than 70%; on BRAF G466V (setting [4]) it was 30 to 70%; at BRAF D594G (setting [6]), 30 to 70%; at BRAF G469A (setting [8]), 30 to 70%.
As for `CCCS(=O)(=O)Nc1cccc(-c2nc(C3CCN(C(=O)C4CCN(C(=O)C5CCN(c6ccc(C7CCC(=O)NC7=O)cn6)CC5)CC4)CC3)sc2-c2ccnc(NC)n2)c1F` (racemic) [Compound 212, Rac-N-[3-(2-{1-[1-(1-{5-[(3R)-2,6-dioxopiperidin-3-yl]pyridin-2-yl}piperidine-4-carbonyl)piperidine-4-carbonyl]piperidin-4-yl}-5-[2-(methylamino)pyrimidin-4-yl]-1,3-thiazol-4-yl)-2-fluorophenyl]propane-1-sulfonamide], the DC50 at BRAF V600E (setting [1]) is less than 10 nM; on BRAF G466V (setting [3]), less than 10 nM; on BRAF D594G (setting [5]), less than 10 nM; on BRAF G469A (setting [7]) it was 10 to 50 nM. Also, the Dmax at BRAF V600E (setting [2]) is greater than 70%; on BRAF G466V (setting [4]) it was 30 to 70%; on BRAF D594G (setting [6]), 30 to 70%; on BRAF G469A (setting [8]), 30 to 70%.
With `CCCS(=O)(=O)Nc1cccc(-c2nc(C(C)(C)C)sc2-c2ccnc(Nc3cccc(OC4CCN(C[C@H]5CC[C@H](Oc6ccc(C7CCC(=O)NC7=O)cc6)CC5)CC4)c3)n2)c1F` (mixture of isomers) [Compound 72, N-(3-(2-(tert-butyl)-5-(2-((3-((1-(((1R,4r)-4-(4-((RS)-2,6-dioxopiperidin-3-yl)phenoxy)cyclohexyl)methyl)piperidin-4-yl)oxy)phenyl)amino)pyrimidin-4-yl)thiazol-4-yl)-2-fluorophenyl)propane-1-sulfonamide], the DC50 is 10 to 50 nM on BRAF V600E (setting [1]), greater than 500 nM at BRAF G466V (setting [3]), greater than 500 nM on BRAF D594G (setting [5]) and greater than 500 nM on BRAF G469A (setting [7]). Moreover, the greatest degradation seen (Dmax) on BRAF V600E (setting [2]) was 30 to 70%; at BRAF G466V (setting [4]), 30 to 70%; at BRAF D594G (setting [6]), 30 to 70%; on BRAF G469A (setting [8]), less than 30%.
Take `CCCS(=O)(=O)Nc1cccc(-c2nc(C(C)(C)C)sc2-c2ccnc(Nc3ccc(N4CCN(C(=O)CC5(O)CCN(c6ccc(NC7CCC(=O)NC7=O)cc6F)CC5)CC4)c(F)c3)n2)c1F` (racemic) [Compound 52, Rac-N-{3-[2-tert-butyl-5-(2-{[4-(4-{2-[1-(4-{[(3R)-2,6-dioxopiperidin-3-yl]amino}-2-fluorophenyl)-4-hydroxypiperidin-4-yl]acetyl}piperazin-1-yl)-3-fluorophenyl]amino}pyrimidin-4-yl)-1,3-thiazol-4-yl]-2-fluorophenyl}propane-1-sulfonamide]: the DC50 was less than 10 nM at BRAF V600E (setting [1]), greater than 500 nM on BRAF G466V (setting [3]), greater than 500 nM at BRAF D594G (setting [5]) and greater than 500 nM on BRAF G469A (setting [7]). Also, the Dmax at BRAF V600E (setting [2]) is greater than 70%; on BRAF G466V (setting [4]), less than 30%; on BRAF D594G (setting [6]) it was less than 30%; at BRAF G469A (setting [8]) it was less than 30%.
